# Measurements taken from ChEMBL document CHEMBL5614460, “Discovery of novel substituted pyridine carboxamide derivatives as potent allosteric SHP2 inhibitors” (Eur J Med Chem, 2024).
# Activity calls are given as the source filed them. The calls are words filed in the database; no cut-off is given here.
# Experiments:
# [1] = Apparent volume of distribution during terminal phase in male Sprague-Dawley rat at 2 mg/kg, iv measured for 24 hrs by LC/MS analysis; type: ADME, organism-based; conditions: in vivo
# [2] = Tmax in male Sprague-Dawley rat at 10 mg/kg, po measured for 24 hrs by LC/MS analysis; type: ADME, organism-based; conditions: in vivo
# [3] = system: MV4-11; assay: Antitumor activity against human MV4-11 cells xenografted in BALB/C nude mouse model assessed as suppression of tumor growth administered intragastrically as once daily dose for 18 days; type: functional, cell-based; conditions: dose 10-30 mg/kg, route ig, time 18.0 day
# [4] = system: MV4-11; assay: Antitumor immunity against human MV4-11 cells xenografted in BALB/C nude mouse model assessed as reduction of IL-10 expression level in tumor at 30 mg/kg, IG administered once daily for 18 days by ELISA; type: functional, organism-based; conditions: time 18.0 day
# [5] = Cmax in male Sprague-Dawley rat at 2 mg/kg, iv measured for 24 hrs by LC/MS analysis; type: ADME, organism-based; conditions: in vivo
# [6] = system: MV4-11; assay: Antitumor activity against human MV4-11 cells xenografted in BALB/C nude mouse model assessed as reduction in Ki67 expression administered intragastrically as once daily dose for 18 days by immunohistochemistry staining based analysis; type: functional, cell-based; conditions: dose 10-30 mg/kg, route ig, time 18.0 day
# [7] = system: MV4-11; assay: Potency index, ratio of TNO155 IC50 to test compound IC50 for antiproliferative activity against human MV4-11 cells assessed as inhibition of cell proliferation incubated for 72 hrs by CCK-8 assay; type: functional
# [8] = system: MV4-11; assay: Antiproliferative activity against human MV4-11 cells assessed as inhibition of cell proliferation incubated for 72 hrs by CCK-8 assay; type: functional, cell-based
# [9] = Cmax in male Sprague-Dawley rat at 10 mg/kg, po measured for 24 hrs by LC/MS analysis; type: ADME, organism-based; conditions: in vivo
# [10] = system: MV4-11; assay: Antitumor activity against human MV4-11 cells xenografted in BALB/C nude mouse model assessed as appearance of shrunken nuclei in tumor at 10 to 30 mg/kg, IG administered once a day for 18 days by H and E staining based analysis; type: functional, organism-based; conditions: dose 10-30 mg/kg, time 18.0 day
# [11] = molecular target: Tyrosine-protein phosphatase non-receptor type 6 (Homo sapiens) (UniProt P29350); assay: Inhibition of SHP1 (unknown origin) using DiFMUP as substrate at 10 uM preincubated with compound for 60 mins followed by substrate addition and measured after 30 mins by fluorescence based microplate reader analysis relative to control; conditions: time 90.0 min
# Tyrosine-protein phosphatase non-receptor type 6 (Homo sapiens), sequence (P29350 whole entry): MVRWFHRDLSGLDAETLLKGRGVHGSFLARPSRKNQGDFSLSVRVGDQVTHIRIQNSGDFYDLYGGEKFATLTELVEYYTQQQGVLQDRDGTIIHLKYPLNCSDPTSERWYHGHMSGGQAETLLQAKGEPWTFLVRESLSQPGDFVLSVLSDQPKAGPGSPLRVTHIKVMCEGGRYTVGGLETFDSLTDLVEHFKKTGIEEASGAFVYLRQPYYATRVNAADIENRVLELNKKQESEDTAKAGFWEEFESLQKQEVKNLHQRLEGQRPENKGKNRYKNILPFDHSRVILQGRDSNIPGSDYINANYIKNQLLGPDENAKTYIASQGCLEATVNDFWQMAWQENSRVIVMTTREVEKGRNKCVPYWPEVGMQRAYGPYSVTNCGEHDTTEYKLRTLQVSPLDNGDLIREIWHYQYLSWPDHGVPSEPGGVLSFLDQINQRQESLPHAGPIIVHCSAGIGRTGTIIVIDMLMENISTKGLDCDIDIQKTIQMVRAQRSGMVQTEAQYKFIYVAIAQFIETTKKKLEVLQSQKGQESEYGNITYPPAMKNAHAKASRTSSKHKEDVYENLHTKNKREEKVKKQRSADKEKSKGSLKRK
# [12] = molecular target: T1, Tyrosine-protein phosphatase non-receptor type 11 (Homo sapiens) (UniProt Q06124); assay: Inhibition of SHP2 in human MV4-11 cells assessed as downregulation of phosphorylated ERK level incubated for 12 hrs by Western blot analysis; type: cell-based; conditions: dose 0-5 µM
# T1 sequence (whole entry): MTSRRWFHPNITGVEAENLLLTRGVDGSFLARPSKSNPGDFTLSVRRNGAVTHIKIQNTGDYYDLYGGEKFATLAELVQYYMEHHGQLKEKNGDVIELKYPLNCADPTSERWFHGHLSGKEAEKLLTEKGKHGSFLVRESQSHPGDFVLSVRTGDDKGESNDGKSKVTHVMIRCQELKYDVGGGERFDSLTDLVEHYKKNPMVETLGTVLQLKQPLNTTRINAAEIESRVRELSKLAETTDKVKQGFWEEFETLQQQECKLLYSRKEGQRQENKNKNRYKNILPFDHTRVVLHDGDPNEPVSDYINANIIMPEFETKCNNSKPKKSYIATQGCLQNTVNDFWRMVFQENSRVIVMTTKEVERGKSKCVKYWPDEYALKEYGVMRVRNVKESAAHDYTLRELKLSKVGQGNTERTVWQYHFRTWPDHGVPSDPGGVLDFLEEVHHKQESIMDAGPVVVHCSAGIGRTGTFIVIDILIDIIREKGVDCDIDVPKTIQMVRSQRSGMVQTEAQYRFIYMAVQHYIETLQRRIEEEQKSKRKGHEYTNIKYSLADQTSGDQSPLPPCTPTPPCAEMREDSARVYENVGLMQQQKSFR
# [13] = Half life in male Sprague-Dawley rat at 10 mg/kg, po measured for 24 hrs by LC/MS analysis; type: ADME, organism-based; conditions: in vivo
# [14] = system: MV4-11; assay: Antitumor activity against human MV4-11 cells xenografted in BALB/C nude mouse model assessed as tumor growth inhibition at 10 mg/kg, IG administered once daily for 18 days relative to control; type: functional; conditions: MV4-11, po, 432 h, time 18 day, read-out: TGI
# [15] = AUC (0 to infinity) in male Sprague-Dawley rat at 2 mg/kg, iv measured for 24 hrs by LC/MS analysis; type: ADME, organism-based; conditions: in vivo
# [16] = molecular target: T2, Tyrosine-protein phosphatase non-receptor type 1 (Homo sapiens) (UniProt P18031); assay: Inhibition of PTP1B (unknown origin) using DiFMUP as substrate at 10 uM preincubated with compound for 60 mins followed by substrate addition and measured after 30 mins by fluorescence based microplate reader analysis relative to control; conditions: time 90.0 min
# T2 sequence (whole entry): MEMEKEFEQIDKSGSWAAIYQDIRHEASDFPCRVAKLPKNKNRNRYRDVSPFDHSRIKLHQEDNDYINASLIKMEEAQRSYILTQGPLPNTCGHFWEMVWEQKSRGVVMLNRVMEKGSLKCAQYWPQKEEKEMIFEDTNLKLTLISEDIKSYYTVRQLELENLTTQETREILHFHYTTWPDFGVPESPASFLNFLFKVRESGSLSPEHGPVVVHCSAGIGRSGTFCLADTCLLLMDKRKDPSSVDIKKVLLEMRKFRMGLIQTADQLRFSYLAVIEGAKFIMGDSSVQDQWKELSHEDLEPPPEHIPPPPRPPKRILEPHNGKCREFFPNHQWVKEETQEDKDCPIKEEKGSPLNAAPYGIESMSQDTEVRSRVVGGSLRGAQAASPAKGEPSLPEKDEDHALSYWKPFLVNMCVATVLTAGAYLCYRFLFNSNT
# [17] = AUC (0 to infinity) in male Sprague-Dawley rat at 10 mg/kg, po measured for 24 hrs by LC/MS analysis; type: ADME, organism-based; conditions: in vivo
# [18] = Toxicity in BALB/C nude mouse xenografted with human […] cells assessed as animal death at 10 to 30 mg/kg, IG administered once daily for 18 days; type: organism-based; conditions: in vivo, po, 432 h, dose 10-30 mg/kg, time 18 day
# [19] = Half life in male Sprague-Dawley rat at 2 mg/kg, iv measured for 24 hrs by LC/MS analysis; type: ADME, organism-based; conditions: in vivo
# [20] = Apparent clearance during terminal phase in male Sprague-Dawley rat at 2 mg/kg, iv measured for 24 hrs by LC/MS analysis; type: ADME, organism-based; conditions: in vivo
# [21] = system: MV4-11; assay: Antitumor activity against human MV4-11 cells xenografted in BALB/C nude mouse model assessed as tumor growth inhibition at 30 mg/kg, IG administered once daily for 18 days relative to control; type: functional; conditions: MV4-11, po, 432 h, time 18 day, read-out: TGI
# [22] = Tmax in male Sprague-Dawley rat at 2 mg/kg, iv measured for 24 hrs by LC/MS analysis; type: ADME, organism-based; conditions: in vivo
# [23] = molecular target: T1, Tyrosine-protein phosphatase non-receptor type 11 (Homo sapiens); assay: Inhibition of SHP2 PTP domain (unknown origin) using DiFMUP as substrate at 10 uM preincubated with compound for 60 mins followed by substrate addition and measured after 30 mins by fluorescence based microplate reader analysis relative to control; conditions: time 90.0 min
# [24] = Toxicity in BALB/C nude mouse xenografted with human […] cells assessed as change in body weight at 10 to 30 mg/kg, IG administered once daily for 18 days; type: organism-based; conditions: in vivo, po, 432 h, dose 10-30 mg/kg, time 18 day
# [25] = system: MV4-11; assay: Antitumor activity against human MV4-11 cells xenografted in BALB/C nude mouse model assessed as appearance of pyknotic nuclei in tumor at 10 to 30 mg/kg, IG administered once a day for 18 days by H and E staining based analysis; type: functional, organism-based; conditions: dose 10-30 mg/kg, time 18.0 day
# [26] = system: MV4-11; assay: Antitumor immunity against human MV4-11 cells xenografted in BALB/C nude mouse model assessed as reduction in F4/80+/CD206+ M2-like tumor associated macrophages at 10 to 30 mg/kg, IG administered once daily for 18 days by immunofluorescence staining […]; type: functional, organism-based; conditions: dose 10-30 mg/kg, time 18.0 day
# [27] = molecular target: T1, Tyrosine-protein phosphatase non-receptor type 11 (Homo sapiens); assay: Inhibition of SHP2 in human MV4-11 cells assessed as downregulation of phosphorylated Akt level incubated for 12 hrs by Western blot analysis; type: cell-based; conditions: dose 0-5 µM
# [28] = molecular target: T3, Tyrosine-protein phosphatase non-receptor type 11 (Homo sapiens, UniProt Q06124); assay: Allosteric inhibition of N-terminal His-tagged human recombinant SHP2 extracted from Escherichia coli using DiFMUP as substrate preincubated with compound for 60 mins followed by substrate addition and measured after 30 mins by fluorescence based microplate reader analysis
# T3 sequence (Q06124 whole entry): T1 sequence (whole entry)
# [29] = system: MV4-11; assay: Antitumor immunity against human MV4-11 cells xenografted in BALB/C nude mouse model assessed as suppression of CD206+/Ly6C+ M2-like tumor associated macrophages in lymphocytes at 10 to 30 mg/kg, IG administered once daily for 18 days by flow cytometric analysis; type: functional, organism-based; conditions: dose 10-30 mg/kg, time 18.0 day
# [30] = Oral bioavailability in male Sprague-Dawley rat at 10 mg/kg measured for 24 hrs by LC/MS analysis; type: ADME, organism-based; conditions: in vivo
# [31] = molecular target: T3, Tyrosine-protein phosphatase non-receptor type 11; assay: Inhibition of SHP2 (unknown origin)
# [32] = Toxicity in BALB/C nude mouse xenografted with human […] cells assessed as animal death at 30 mg/kg, IG administered once daily for 18 days; type: organism-based; conditions: in vivo, po, 432 h, time 18 day
# [33] = Toxicity in BALB/C nude mouse xenografted with human […] cells assessed as change in body weight at 30 mg/kg, IG administered once daily for 18 days; type: organism-based; conditions: in vivo, po, 432 h, time 18 day
smiles,measurement,setting,value
N[C@@H]1c2ccccc2CC12CCN(c1cnc(Sc3cccc(NC(=O)c4cnccc4O)c3Cl)cn1)CC2,Vz/F,[1],11.04 L/kg
same,Tmax,[2],3.24 h
same,Activity,[3],Dose-Dependent Effect
same,Activity,[4],Active
same,Cmax,[5],681 ng/mL
same,Activity,[6],Dose-Dependent Effect
same,Ratio IC50,[7],~11
same,IC50,"[8]; Homo sapiens, MV4-11, 72 h",3.5 nM
same,Cmax,[9],70.1 ng/mL
same,Activity,[10],Active
same,inhibition,[11],29.3%
same,inhibition,[12],Dose-Dependent Effect
same,half-life,[13],280 min
same,inhibition in vivo at 10 mg/kg,[14],45.9%
same,AUC(0-inf),[15],1260 ng·h/mL
same,inhibition,[16],8.7%
same,AUC(0-inf),[17],762 ng·h/mL
same,Activity,[18],Non-Toxic
same,half-life,[19],256 min
same,CLz/F,[20],1.74 L/h/kg
same,inhibition in vivo at 30 mg/kg,[21],69.5%
same,Tmax,[22],1.8 min
same,inhibition,[23],13.2%
same,Activity,[24],Non-Toxic
same,Activity,[25],Active
same,Activity,[26],Active
same,inhibition,[27],Dose-Dependent Effect
same,IC50,[28],0.13 nM
same,Activity,[29],Active
same,bioavailability,[30],11.9%
Cc1nc(N2CCC3(CC2)CO[C@@H](C)[C@H]3N)c(CO)nc1Sc1ccnc(N)c1Cl [VOCIPROTAFIB],IC50,[31],1.5 nM
C[C@@H]1OCC2(CCN(c3cnc(Sc4ccnc(N)c4Cl)c(N)n3)CC2)[C@@H]1N [BATOPROTAFIB],IC50,[8]; mv4-11,39 nM
same,Activity,[32],Non-Toxic
same,Activity,[33],Non-Toxic
same,inhibition in vivo at 30 mg/kg,[21],70.8%
